Assay results reported in patent publication US8614206B2 (Genentech, Inc., priority 2011, dated 2013).
Like-named read-outs stand apart in the source and are kept apart here.

How the values were obtained:
PIM1 = PIM1 (Homo sapiens (Human), UniProt P11309); assay: Pim kinase inhibition, PIM1 LC3K (Example 901); format: biochemical
Text: Determination of the Pim kinase activity of a Formula I compound is possible by a number of direct and indirect detection methods.

BaF3 parental cells = assay: In vitro cell proliferation, BaF3 parental line + IL3 (CellTiter-Glo); format: cell-based, murine; conditions: Mus musculus, BaF3, BaF3 parental cells with IL-3, incubated overnight
[1] = tested on: MM1.S (multiple myeloma) cells; assay: In vitro cell proliferation, MM1.S multiple myeloma cells (CellTiter-Glo, ATP); format: cell-based; conditions: Homo sapiens, MM1.S, 72 h, read-out: Prolif MM1S ATP (EC50)
Summary of the method: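 BaF3 parental cells (medium with 2 ng/mL mIL-3) seeded at 2 k/well and MM1.S at 10 k/well, then exposed to test compound at 37° C, 5% CO2: BaF3 overnight, MM1.S for 72 hours. Viability read by CellTiter-Glo; IC50/EC50 values calculated.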

BaF3 PIM1 cells = assay: cells; conditions: Mus musculus
Experimental: BaF3 parental line was obtained from the DSMZ repository. BaF3 lines transfected with PIM 1 or PIM2 were generated. Mouse IL-3 was purchased from R&D Systems. G418 was purchased from Clontech. Media for BaF3 parental line contained RPMI, 10% FBS, 2 mM L-Glutamine, 2 ng/mL mIL-3. Media for BaF3 PIM1 & 2 lines contained RPMI, 10% FBS, 2 mM L-Glutamine, 250 μg/mL.
BaF3, a murine interleukin-3 dependent pro-B cell line, parental cells, BaF3 PIM1 cells, BaF3 PIM2 cells, and MM1.S (multiple myeloma) cells were seeded at 2 k/well, 5 k/well, 5 k/well, and 10 k/well respectively, in a 384-well plate, at 45 μL/well. Test compound was added at 5 μL/well. BaF3 cells (parental and transfected) were incubated overnight, while MM1.S cells were incubated for 72 hours at 37° C., 5% CO2. CELL TITER GLO® Reagent (Promega) was added at 50 μL/well, the plates were incubated for 30 minutes, and their luminescence read on an HT Analyst. IC50/EC50 values for the test compound were calculated.

[2] = read-out: Prolif BaF3 + IL3 (IC50)
[3] = BaF3, read-out: Prolif BaF3_PIM1 (IC50), BaF3 PIM1 cells, incubated overnight
[4] = read-out: Prolif BaF3 IL3 (IC50)
[5] = BaF3, read-out: Prolif BaF3 PIM1 (IC50), BaF3 PIM1 cells, incubated overnight

PIM1, sequence (P11309 whole entry): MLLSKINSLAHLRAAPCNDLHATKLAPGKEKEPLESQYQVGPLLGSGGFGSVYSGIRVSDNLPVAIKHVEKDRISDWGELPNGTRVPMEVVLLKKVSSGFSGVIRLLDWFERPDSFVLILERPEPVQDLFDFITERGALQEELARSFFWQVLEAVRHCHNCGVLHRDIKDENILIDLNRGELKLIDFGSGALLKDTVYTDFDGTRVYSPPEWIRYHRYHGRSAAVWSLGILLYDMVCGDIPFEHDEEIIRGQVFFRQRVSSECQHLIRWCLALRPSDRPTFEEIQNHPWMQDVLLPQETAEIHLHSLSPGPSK

Ki (PIM1) [nM] | EC50 [1] [nM] | IC50 (BaF3 PIM1 cells; [3]) [nM] | IC50 (BaF3 PIM1 cells; [5]) [nM] | Structure (SMILES) | IC50 (BaF3 parental cells; [2]) [nM] | IC50 (BaF3 parental cells; [4]) [nM]
0.086 | 5600 | 64.8 |  | Cn1ncc(NC(=O)c2nc(-c3c(F)cncc3F)sc2N)c1N1CC[C@H](N)[C@@H](F)CC1 (stereo in doubt) [Example 472, 5-amino-N-[5-[(4S,5S)-4-amino-5-fluoro-azepan-1-yl]-1-methyl-pyrazol-4-yl]-2-(3,5-difluoro-4-pyridyl)thiazole-4-carboxamide] | 18500 | 
0.03 | 1900 |  | 566 | Cn1ncc(NC(=O)c2nc(-c3cc(F)ccc3F)sc2N)c1N1CCNCC(F)(F)C1 [Example 106, 5-Amino-N-(5-(6,6-difluoro-1,4-diazepan-1-yl)-1-methyl-1H-pyrazol-4-yl)-2-(2,5-difluorophenyl)thiazole-4-carboxamide] |  | 15600
0.079 | 388 |  | 157 | CN[C@@H]1CCCN(c2c(NC(=O)c3nc(-c4c(F)cccc4F)sc3N)cnn2CC(F)F)CC1 [Example 107, (R)-5-Amino-N-(1-(2,2-difluoroethyl)-5-(4-(methylamino)azepan-1-yl)-1H-pyrazol-4-yl)-2-(2,6-difluorophenyl)thiazole-4-carboxamide] |  | 5100
0.43 | 1400 |  | 326 | CN[C@@H]1CCCN(c2c(NC(=O)c3nc(-c4cc(F)ccc4F)sc3N)cnn2CC(F)F)CC1 [Example 108, (R)-5-Amino-N-(1-(2,2-difluoroethyl)-5-(4-(methylamino)azepan-1-yl)-1H-pyrazol-4-yl)-2-(2,5-difluorophenyl)thiazole-4-carboxamide] |  | 4900
0.097 | 3900 |  | 778 | CN[C@@H]1CCCN(c2c(NC(=O)c3nc(-c4cc(C)ccc4F)sc3N)cnn2CC(F)F)CC1 [Example 109, (R)-5-Amino-N-(1-(2,2-difluoroethyl)-5-(4-(methylamino)azepan-1-yl)-1H-pyrazol-4-yl)-2-(2-fluoro-5-methylphenyl)thiazole-4-carboxamide] |  | 5100
0.015 | 420 |  | 86.3 | Cn1ncc(NC(=O)c2nc(-c3c(F)ccc(C4CC4)c3F)sc2N)c1N1CCC[C@@H](N)CC1 [Example 115, (R)-5-amino-N-(5-(4-aminoazepan-1-yl)-1-methyl-1H-pyrazol-4-yl)-2-(3-cyclopropyl-2,6-difluorophenyl)thiazole-4-carboxamide] |  | 5800
0.01 | 122 |  | 63.6 | Cc1ccc(F)c(-c2nc(C(=O)Nc3cnn(C)c3N3CCC[C@@H](N)CC3)c(N)s2)c1F [Example 116, (R)-5-amino-N-(5-(4-aminoazepan-1-yl)-1-methyl-1H-pyrazol-4-yl)-2-(2,6-difluoro-3-methylphenyl)thiazole-4-carboxamide] |  | 8100
0.044 | 3000 |  | 212 | CN[C@H]1CCCN(c2c(NC(=O)c3nc(-c4cc(C)ccc4F)sc3N)cnn2CC(F)F)CC1 [Example 119, (S)-5-Amino-N-(1-(2,2-difluoroethyl)-5-(4-(methylamino)azepan-1-yl)-1H-pyrazol-4-yl)-2-(2-fluoro-5-methylphenyl)thiazole-4-carboxamide] |  | 5600
0.12 | 160 |  | 404 | Nc1sc(-c2cc(F)ccc2F)nc1C(=O)Nc1cnn(CC(F)F)c1N1CCC[C@@H](N)CC1 [Example 161, (R)-5-amino-N-(5-(4-aminoazepan-1-yl)-1-(2,2-difluoroethyl)-1H-pyrazol-4-yl)-2-(2,5-difluorophenyl)thiazole-4-carboxamide] |  | 6000
0.206 | 20200 |  | 547 | Cn1ncc(NC(=O)c2nc(-c3ccccn3)sc2N)c1N1CCNCC(F)(F)C1 [Example 223, 5-amino-N-(5-(6,6-difluoro-1,4-diazepan-1-yl)-1-methyl-1H-pyrazol-4-yl)-2-(pyridin-2-yl)thiazole-4-carboxamide] |  | 12500
0.0694 | 32 | 33.6 |  | COC1CCN(c2c(NC(=O)c3nc(-c4ccccc4F)sc3N)cnn2C)CCC1N (stereo not drawn) [Example 324, 5-amino-N-[5-(4-amino-5-methoxy-azepan-1-yl)-1-methyl-pyrazol-4-yl]-2-(2-fluorophenyl)thiazole-4-carboxamide] | 19600 | 
0.153 | 752 | 191 |  | COC1CCN(c2c(NC(=O)c3nc(-c4cc(C)ccc4F)sc3N)cnn2C)CCC1N (stereo not drawn) [Example 325, 5-amino-N-[5-(4-amino-5-methoxy-azepan-1-yl)-1-methyl-pyrazol-4-yl]-2-(2-fluoro-5-methyl-phenyl)thiazole-4-carboxamide] | 16600 | 
0.384 | 185 | 73.5 |  | COC1CCN(c2c(NC(=O)c3nc(-c4cc(F)ccc4F)sc3N)cnn2C)CCC1N (stereo not drawn) [Example 326, 5-amino-N-[5-(4-amino-5-methoxy-azepan-1-yl)-1-methyl-pyrazol-4-yl]-2-(2,5-difluorophenyl)thiazole-4-carboxamide] | 17400 | 
0.248 | 2800 | 1300 |  | Cc1ccc(F)c(-c2nc(C(=O)Nc3cnn(C4CC4)c3N3CCC(N)C(F)CC3)c(N)s2)c1 (stereo not drawn) [Example 329, 5-amino-N-[5-(4-amino-5-fluoro-azepan-1-yl)-1-cyclopropyl-pyrazol-4-yl]-2-(2-fluoro-5-methyl-phenyl)thiazole-4-carboxamide] | 4600 | 
0.01 | 1200 | 83.6 |  | Nc1sc(-c2c(F)cccc2F)nc1C(=O)Nc1cnn(C2CC2)c1N1CC[C@H](N)CC(F)(F)C1 [Example 344, 5-amino-N-[5-[(5S)-5-amino-3,3-difluoro-azepan-1-yl]-1-cyclopropyl-pyrazol-4-yl]-2-(2,6-difluorophenyl)thiazole-4-carboxamide] | 5200 | 
0.007 | 136 | 81.3 |  | Nc1sc(-c2c(F)cccc2F)nc1C(=O)Nc1cnn(C2CC2)c1N1CC[C@@H](N)CC(F)(F)C1 [Example 345, 5-amino-N-[5-[(5R)-5-amino-3,3-difluoro-azepan-1-yl]-1-cyclopropyl-pyrazol-4-yl]-2-(2,6-difluorophenyl)thiazole-4-carboxamide] | 8400 | 
1.08 | 7000 | 1400 |  | COc1ncccc1-c1nc(C(=O)Nc2cnn(C)c2N2CCC[C@H](N)CC2)c(N)s1 [Example 418, 5-amino-N-[5-[(4S)-4-aminoazepan-1-yl]-1-methyl-pyrazol-4-yl]-2-(2-methoxy-3-pyridyl)thiazole-4-carboxamide] | > 25000 | 
0.38 | 3800 | 340 |  | Cn1ncc(NC(=O)c2nc(-c3ccncc3F)sc2N)c1N1CC[C@H](N)[C@@H](F)CC1 [Example 422, 5-amino-N-(5-((4S,5S)-4-amino-5-fluoroazepan-1-yl)-1-methyl-1H-pyrazol-4-yl)-2-(3-fluoropyridin-4-yl)thiazole-4-carboxamide] | > 25000 | 
0.014 | 571 | 6.97 |  | Cn1ncc(NC(=O)c2nc(-c3ccncc3F)sc2N)c1N1CC[C@@H](N)CC(F)(F)C1 [Example 447, 5-amino-N-[5-[(5R)-5-amino-3,3-difluoro-azepan-1-yl]-1-methyl-pyrazol-4-yl]-2-(3-fluoro-4-pyridyl)thiazole-4-carboxamide] | 12900 | 
0.009 | 221 | 2.57 |  | Cn1ncc(NC(=O)c2nc(-c3c(F)cncc3F)sc2N)c1N1CC[C@@H](N)CC(F)(F)C1 [Example 455, 5-amino-N-[5-[(5R)-5-amino-3,3-difluoro-azepan-1-yl]-1-methyl-pyrazol-4-yl]-2-(3,5-difluoro-4-pyridyl)thiazole-4-carboxamide] | 3900 | 
0.006 | 492 | 6.84 |  | COc1cc(F)c(-c2nc(C(=O)Nc3cnn(C)c3N3CCC(N)CC(F)(F)C3)c(N)s2)c(F)c1 (stereo not drawn) [Example 459, 5-amino-N-[5-(5-amino-3,3-difluoro-azepan-1-yl)-1-methyl-pyrazol-4-yl]-2-(2,6-difluoro-4-methoxy-phenyl)thiazole-4-carboxamide] | 7500 | 
0.026 | 215 | 36.4 |  | Cc1c(-c2nc(C(=O)Nc3cnn(C)c3N3CCC(N)CC(F)(F)C3)c(N)s2)cnn1C (stereo not drawn) [Example 460, 5-amino-N-[5-(5-amino-3,3-difluoro-azepan-1-yl)-1-methyl-pyrazol-4-yl]-2-(1,5-dimethylpyrazol-4-yl)thiazole-4-carboxamide] | > 25000 | 
0.08 | 211 | 39.7 |  | Cn1ncc(NC(=O)c2nc(-c3cccc(C#N)n3)sc2N)c1N1CC[C@@H](N)CC(F)(F)C1 [Example 461, 5-amino-N-[5-[(5R)-5-amino-3,3-difluoro-azepan-1-yl]-1-methyl-pyrazol-4-yl]-2-(6-cyano-2-pyridyl)thiazole-4-carboxamide] | 16600 | 
0.03 | 1200 | 32.6 |  | Cc1nn(C)cc1-c1nc(C(=O)Nc2cnn(C)c2N2CC[C@@H](N)CC(F)(F)C2)c(N)s1 [Example 462, 5-amino-N-[5-[(5R)-5-amino-3,3-difluoro-azepan-1-yl]-1-methyl-pyrazol-4-yl]-2-(1,3-dimethylpyrazol-4-yl)thiazole-4-carboxamide] | 8000 | 
